Measured values as given in patent publication US9518061B2, “Substituted pyrazolylpyrazole derivative and use of same as herbicide” (KYOYU AGRI CO., LTD., priority 2013, dated 2016).

Experiments:
Type in all cases: in vivo
Echinochloa crus-galli = assay: Paddy herbicidal activity test; details: irrigated paddy pot, treated at 3.5 leaf stage of Echinochloa crus-galli, 30 days
Description: (§1) 1. Paddy Herbicidal Activity Test
(§2) Rice paddy soil was filled into a 1/10000 are pot followed by the addition of suitable amounts of water and chemical fertilizer, kneading, seeding with Echinochloa crus-galli, Monochoria vaginalis and Scirpus juncoides and maintaining in an irrigated state at a water depth of 3 cm.
(§3) Wettable powder of Target Compound (I) shown in Table 1 prepared in compliance with the preparation examples were diluted with a suitable amount of water, rice plants in the 2.0 leaf stage were transplanted during 3.5 leaf stage of Echinochloa crus-galli, and treated by dropping in chemical in the prescribed amount per are using a pipette.
(§4) After treating for 30 days in a glass greenhouse at an average atmospheric temperature of 30° C., the herbicidal efficacy thereof was investigated.
(§5) Evaluation of herbicidal efficacy was carried out by comparing growth inhibition rate (%) with an untreated group, while evaluation of phytotoxicity was carried out by comparing growth inhibition rate (%) with the state of a complete eradication group, and were evaluated at 11 levels indicated below.

Monochoria vaginalis = assay: Paddy herbicidal activity test; details: irrigated paddy pot, 30 days
Description: as §1, §2, §3, §4, §5

Scirpus juncoides = assay: Paddy herbicidal activity test; details: irrigated paddy pot, 30 days
Description: as §1, §2, §3, §4, §5

Rice plants = assay: Paddy herbicidal activity test, phytotoxicity to transplanted rice; details: rice transplanted in 2.0 leaf stage, 30 days
Description: as §1, §2, §3, §4, §5

Amaranthus retroflexus [1] = assay: Farming soil treatment test; details: soil surface spray prior to weed growth, 30 days
Description: (§6) 2. Farming Soil Treatment Test
(§7) Field soil was filled into a 1/6000 are pot followed by seeding with Digitaria ciliaris, Chenopodium album and Amaranthus retroflexus and covering with soil.
(§8) Wettable powder of compounds of formula (D shown in Table 1 prepared in compliance with the preparation examples were diluted with water to the prescribed amount of chemical and uniformly sprayed onto each soil surface layer using 10 liters of sprayed water per are prior to weed growth following seeding.
as §4
(§9) Evaluation of herbicidal efficacy was carried out in the same manner as the above-mentioned Test Example 1.

Chenopodium album [2] = assay: Farming soil treatment test; details: soil surface spray prior to weed growth, 30 days
Description: as §6, §7, §8, §4, §9

Digitaria ciliaris [3] = assay: Farming soil treatment test; details: soil surface spray prior to weed growth, 30 days
Description: as §6, §7, §8, §4, §9

Amaranthus retroflexus [4] = assay: Weed foliar treatment test; details: foliar spray, 3 weeks
Description: (§10) 3. Weed Foliar Treatment Test
(§11) Soil was filled into a 1/6000 are pot followed by seeding with Digitaria ciliaris, Chenopodium album and Amaranthus retroflexus, covering with soil, and cultivating in a glass greenhouse at an average atmospheric temperature of 25° C.
(§12) Wettable powder of Target Compound (I) shown in Table 1 prepared in compliance with the preparation examples were diluted with water to the prescribed amount of chemical and uniformly sprayed onto the weeds using 15 liters of sprayed water per are when Digitaria ciliaris had grown to the 1.0 to 2.0 leaf stage.
(§13) After treating for 3 weeks in a glass greenhouse at an average atmospheric temperature of 25° C., the herbicidal efficacy thereof was investigated.
as §9

Chenopodium album [5] = assay: Weed foliar treatment test; details: foliar spray, 3 weeks
Description: as §10, §11, §12, §13, §9

Digitaria ciliaris [6] = assay: Weed foliar treatment test; details: foliar spray at 1.0 to 2.0 leaf stage of Digitaria ciliaris, 3 weeks
Description: as §10, §11, §12, §13, §9

| SMILES | herbicidal efficacy (growth inhibition rate level) Echinochloa crus-galli (Echinochloa crus-galli; 1g a.i./10a) | herbicidal efficacy (growth inhibition rate level) Echinochloa crus-galli (Echinochloa crus-galli; 5g a.i./10a) | herbicidal efficacy (growth inhibition rate level) Monochoria vaginalis (Monochoria vaginalis; 1g a.i./10a) | herbicidal efficacy (growth inhibition rate level) Monochoria vaginalis (Monochoria vaginalis; 5g a.i./10a) | herbicidal efficacy (growth inhibition rate level) Scirpus juncoides (Scirpus juncoides; 1g a.i./10a) | herbicidal efficacy (growth inhibition rate level) Scirpus juncoides (Scirpus juncoides; 5g a.i./10a) | phytotoxicity (growth inhibition rate level) Rice plants (Rice plants; 1g a.i./10a) | phytotoxicity (growth inhibition rate level) Rice plants (Rice plants; 5g a.i./10a) | herbicidal efficacy (growth inhibition rate level) Amaranthus retroflexus (Amaranthus retroflexus [1]; 5g a.i./10a) | herbicidal efficacy (growth inhibition rate level) Amaranthus retroflexus (Amaranthus retroflexus [1]; 10g a.i./10a) | herbicidal efficacy (growth inhibition rate level) Chenopodium album (Chenopodium album [2]; 5g a.i./10a) | herbicidal efficacy (growth inhibition rate level) Chenopodium album (Chenopodium album [2]; 10g a.i./10a) | herbicidal efficacy (growth inhibition rate level) Digitaria ciliaris (Digitaria ciliaris [3]; 5g a.i./10a) | herbicidal efficacy (growth inhibition rate level) Digitaria ciliaris (Digitaria ciliaris [3]; 10g a.i./10a) | herbicidal efficacy (growth inhibition rate level) Amaranthus retroflexus (Amaranthus retroflexus [4]; 5g a.i./10a) | herbicidal efficacy (growth inhibition rate level) Amaranthus retroflexus (Amaranthus retroflexus [4]; 10g a.i./10a) | herbicidal efficacy (growth inhibition rate level) Chenopodium album (Chenopodium album [5]; 5g a.i./10a) | herbicidal efficacy (growth inhibition rate level) Chenopodium album (Chenopodium album [5]; 10g a.i./10a) | herbicidal efficacy (growth inhibition rate level) Digitaria ciliaris (Digitaria ciliaris [6]; 5g a.i./10a) | herbicidal efficacy (growth inhibition rate level) Digitaria ciliaris (Digitaria ciliaris [6]; 10g a.i./10a) |
| --- | --- | --- | --- | --- | --- | --- | --- | --- | --- | --- | --- | --- | --- | --- | --- | --- | --- | --- | --- | --- |
| CN(C(=O)C(F)(F)F)c1c(C#N)cnn1-c1nn2c(c1Cl)CCCC2 [Control agent 4.237] | 1 (10% to less than 20%) | 4 (40% to less than 50%) | 2 (20% to less than 30%) | 3 (30% to less than 40%) | 2 (20% to less than 30%) | 4 (40% to less than 50%) | 1 (10% to less than 20%) | 2 (20% to less than 30%) | 5 (50% to less than 60%) | 5 (50% to less than 60%) | 4 (40% to less than 50%) | 4 (40% to less than 50%) | 4 (40% to less than 50%) | 5 (50% to less than 60%) | 4 (40% to less than 50%) | 6 (60% to less than 70%) | 4 (40% to less than 50%) | 5 (50% to less than 60%) | 5 (50% to less than 60%) | 6 (60% to less than 70%) |
| COCCN(C(=O)C(F)(F)F)c1c([N+](=O)[O-])cnn1-c1nn2c(c1Cl)CCCC2 [Compound 20] | 9 (90% to less than 100%) | 10 (100%) | 9 (90% to less than 100%) | 9 (90% to less than 100%) | 9 (90% to less than 100%) | 10 (100%) | 1 (10% to less than 20%) | 1 (10% to less than 20%) | 10 (100%) | 10 (100%) | 10 (100%) | 10 (100%) | 10 (100%) | 10 (100%) | 10 (100%) | 10 (100%) | 10 (100%) | 10 (100%) | 10 (100%) | 10 (100%) |
| N#Cc1cnn(-c2nn3c(c2Br)CCCC3)c1N(CCCl)C(=O)C(F)(F)F [Compound 16] | 9 (90% to less than 100%) | 10 (100%) | 7 (70% to less than 80%) | 8 (80% to less than 90%) | 8 (80% to less than 90%) | 9 (90% to less than 100%) | 0 (0 (exponent): 0% to less than 10% (growth inhibition rate)) | 1 (10% to less than 20%) | 10 (100%) | 10 (100%) | 10 (100%) | 10 (100%) | 10 (100%) | 10 (100%) | 10 (100%) | 10 (100%) | 10 (100%) | 10 (100%) | 10 (100%) | 10 (100%) |
| COCCNc1c(C#N)cnn1-c1nn2c(c1Cl)CCCC2 [Control agent 4.63] | 2 (20% to less than 30%) | 3 (30% to less than 40%) | 1 (10% to less than 20%) | 2 (20% to less than 30%) | 1 (10% to less than 20%) | 2 (20% to less than 30%) | 0 (0 (exponent): 0% to less than 10% (growth inhibition rate)) | 1 (10% to less than 20%) | 4 (40% to less than 50%) | 5 (50% to less than 60%) | 4 (40% to less than 50%) | 5 (50% to less than 60%) | 3 (30% to less than 40%) | 3 (30% to less than 40%) | 3 (30% to less than 40%) | 6 (60% to less than 70%) | 3 (30% to less than 40%) | 5 (50% to less than 60%) | 2 (20% to less than 30%) | 4 (40% to less than 50%) |
| COCCCN(C(=O)C(F)(F)F)c1c(C#N)cnn1-c1nn2c(c1Cl)CCCC2 [Compound 6] | 9 (90% to less than 100%) | 10 (100%) | 8 (80% to less than 90%) | 9 (90% to less than 100%) | 7 (70% to less than 80%) | 8 (80% to less than 90%) | 0 (0 (exponent): 0% to less than 10% (growth inhibition rate)) | 0 (0 (exponent): 0% to less than 10% (growth inhibition rate)) |  |  |  |  |  |  |  |  |  |  |  |  |
| COCCCN(C(=O)C(F)(F)F)c1c(C#N)cnn1-c1nn2c(c1Br)CCCC2 [Compound 15] | 9 (90% to less than 100%) | 10 (100%) | 8 (80% to less than 90%) | 8 (80% to less than 90%) | 8 (80% to less than 90%) | 9 (90% to less than 100%) | 0 (0 (exponent): 0% to less than 10% (growth inhibition rate)) | 1 (10% to less than 20%) |  |  |  |  |  |  |  |  |  |  |  |  |
